Reference: patent publication US20230136562A1, “SPIROUREA DERIVATIVES” (Idorsia Pharmaceuticals Ltd, priority 2020, published 2023)

How the values were obtained:
[1] = target: T1, Kv7.2/7.3 (Homo sapiens, UniProt O43525+O43526); experiment: Kv7.2/3 assay (FLIPR potassium assay, agonist mode); type: cell-based; details: Kv7.2/7.3 activation; HEK293 cells, human KCNQ2 and KCNQ3
T1 construct: expressed in transfected cells; host or cells: HEK293
Procedure: HEK293 cells were stably transfected with the appropriate ion channel cDNA(s) (human KCNQ2 and KCNQ3 genes). Cells were cultured in Dulbecco's Modified Eagle Medium/Nutrient mixture F-12 (D-MEM/F-12) supplemented with 10% fetal bovine serum, 100 U/mL penicillin G sodium, 100 µg/mL streptomycin sulfate and selection antibiotics. FLIPR Test Procedure: For FLIPR assay, cells were plated in 384-well black clear-bottomed microtiter plates (BD Biocoat Poly-D-Lysine Multiwell Cell Culture Plate) at 15'000 to 30'000 cells per well. Cells were incubated at 37° C. overnight or until cells reached sufficient density in the wells (near confluent monolayer) to use in fluorescence assays. […] Assays were performed with the FLIPR potassium assay kit (Molecular Devices) according to the manufacturer's instructions. Dye-loading: Growth media was removed and replaced with 20 μL of dye loading buffer for 60 min at room temperature. FLIPR Recording (agonist mode): Stock solutions of test compounds were prepared at a concentration of 33.3 mM in DMSO. 5 μL of 5× concentrated test, vehicle, or control compounds solutions prepared in the stimulation buffer (K^+-free buffer with 5 mM TI^+) were added to each well and fluorescence recording was continued for 5 min. The agonist effect (EC50 and % effect) of test or control compounds on Kv7 channels was determined as follows: Raw data was exported using Screenworks® 4.2 software and the fluorescence traces were analysed using Microsoft Excel (Microsoft Corp., Redmond, Wash.). The test compounds responses were expressed as % of maximum response of the control compound Flupirtine (Sigma-Aldrich), which was tested at concentrations ranging from 0.03 to 100 μM. Concentration-response data were fitted to a Hill equation. Non-linear least squares fits were made assuming a simple binding model. If appropriate, fits were weighted by the standard deviation. No assumptions about the fit parameters were made; the fit parameters were determined by the algorithm.

[2] = test system: DBA/2J mice; experiment: Audiogenic seizure-sensitive mouse model of generalized convulsive seizures (AGS); type: in vivo; details: challenge 1 h, 90% MC 0.5% + 10% PEG400, read-out: Seizure stage [% vs. vehicle]
Procedure: Formulation and Administration.
Compounds were formulated in a 10% polyethylene glycol 400 (PEG 400)/90% aqueous solution of 0.5% methylcellulose (MC 0.5%). Firstly drugs are dissolved in PEG 400 and then suspended in MC 0.5% for oral gavage at X mg/5 mL/kg (X see table).
Audiogenic Seizure-Sensitive Mouse Model of Generalized Convulsive Seizures
1. Procedure: Following two days of acclimatisation, auditory seizures are induced in male juvenile DBA/2J mice (22-24 days old). Each mouse is placed individually in the exposure chamber, an hemispheric acrylic glass dome (diameter: 50 cm) within a sound-attenuated box. The sound-attenuated box is equipped with two house lights and a camera system (Fire-I from Unibrain) in order to observe and record the behavioral seizure response. After 60 seconds of habituation, the stimulus, a mixed frequency tone of 15-20 kHz at 110 dB (SASLab Lite, Avisoft Bioacoustics), is played from a speaker that is placed on the top center of the dome. […] Seizures are classified as following: stage 0, normal behavior; stage 1, wild running; stage 2, generalized clonus; stage 3, tonic extension of the hind limbs.
2. Compounds testing: Acute compound effects on audiogenic generalized convulsive seizures are evaluated in independent groups of 8-10 mice randomly assigned. Following oral administration of compound or vehicle, the maximum seizure stage during sound exposure is assessed. Compounds are given 1 hour before exposure to the stimulus. Each mouse is exposed to the auditory stimulus only once and euthanized afterwards by CO2 inhalation.

O=C(NCc1cccc(C(F)(F)F)c1)NC1CC2(CC2)C1 [Example 2, 1-Spiro[2.3]hex-5-yl-3-(3-trifluoromethyl-benzyl)-urea]
EC50 [1]: 70 nM
change in vivo at 30 mg/kg ([2]; 30 mg/kg po): -95%

O=C(NC1CC2(CC2)C1)N[C@@H](CO)c1cccc(C(F)(F)F)c1 (single isomer, unassigned) [Example 186]
EC50 [1]: 23 nM
change in vivo at 5 mg/kg ([2]; 5 mg/kg po): -67%

O=C(NCc1cc(OCC(F)(F)F)ncn1)NC1CC2(CCC2)C1 [Example 59, 1-Spiro[3.3]hept-2-yl-3-[6-(2,2,2-trifluoro-ethoxy)-pyrimidin-4-ylmethyl]-urea]
EC50 [1]: 12.4 nM
change in vivo at 10 mg/kg ([2]; 10 mg/kg po): -70%
